Data: US12220463B2, “Quaternary ammonium cyclodextrin and preparation method and uses thereof, and silver nanoparticle-cyclodextrin complex and preparation method and uses thereof” (Hubei University of Chinese Medicine, priority 2022, dated 2025)

How the values were obtained:
[1] = tested on: Escherichia coli (E. coli); experiment: Inhibition zone assay of bacteriostatic activity (GB/T 39101-2020, punching method); type: cell-based; details: FIG. 19, repeated three times
Experimental: Preparation of a silver nanoparticle sample for control: 0.1 mol/L AgCl was dissolved in 16 mL of an ammonia solution at a mass concentration of 25% with continuous stirring, and an aqueous solution of 0.1 mol/L vitamin C was added dropwise. […] The solution was then filtered, and the precipitate was washed repeatedly with double-distilled water, dispersed in double-distilled water, and freeze-dried for 24 h to afford silver nanoparticles prepared from vitamin C.
Determination of antibacterial activity of polypeptides according to GB/T 39101-2020: Inhibition zone assays in the inhibition zone method evaluate the bacteriostatic activity of test substances. The strain used is Escherichia coli (E. coli) in an ampicillin solution having a concentration of 1.5 mg/mL, using the punching method instead of the “Oxford cup” method to control the sampling areas.

[2] = Inclusion rate of C-β-CD for thymol (UV absorbance at 278 nm); type: physicochemical; details: thymol/C-β-CD inclusion complex, 40° C. 2 h, freeze-dried
Experimental: 0.656 g of the cationic β-cyclodextrin (C-β-CD) prepared in Example 1 was weighed and added with 10 mL distilled water until completely dissolution. An anhydrous ethanol solution containing 0.075 g thymol (2 mL in total) was added. The mixture was magnetically stirred in a water bath at 40° C. for 2 h. After completion, the mixture was filtered with a 0.45 μm microporous membrane. The resulting solution was freeze-dried for 24 h to afford a thymol/C-β-CD inclusion complex.
15 mg of analytically pure thymol was weighed and dissolved in anhydrous ethanol, and the volume was adjusted to 10 mL to prepare a 1500 mg/L stock solution. A proper amount of the stock solution was taken and diluted with anhydrous ethanol into a series of standard solutions at a concentration of 50, 40, 30, 20, and 10 mg/L. In the optimal absorption wavelength, an absorbance A of the above series of standard solutions was determined. A standard curve was drawn with a thymol concentration (mg/L) as an abscissa and A as an ordinate.
0.1 g of the thymol/C-β-CD inclusion complex as prepared above was weighed and added into a 25 mL volumetric flask, added with anhydrous ethanol to dilute to the mark, and sonicated for 30 min. […] The absorbance A of the solution at 278 nm was determined, and taken into the regression equation to calculate the thymol content in the inclusion complex. […]

[3] = Inclusion rate of C-β-CD for cinnamaldehyde (UV absorbance at 287 nm); type: physicochemical; details: saturated aqueous solution method, 45° C. 4 h, freeze-dried
Experimental: 0.656 g the cationic β-cyclodextrin (C-β-CD) prepared in Example 1 was weighed and added with 10 mL distilled water until completely dissolution. An anhydrous ethanol solution containing 0.066 g cinnamaldehyde was added slowly. The mixture was magnetically stirred in a water bath at 45° C. for 4 h. After completion, the mixture was filtered with a 0.45 μm microporous membrane. The resulting solution was freeze-dried for 24 h to afford a cinnamaldehyde/C-β-CD inclusion complex.
10 mg analytically pure cinnamaldehyde was weighed and dissolved in anhydrous ethanol, and the volume was adjusted to 10 mL to prepare a 1000 mg/L stock solution. A proper amount of the stock solution was taken and diluted with anhydrous ethanol into a series of standard solutions at a concentration of 2, 4, 6, 8, and 10 mg/L. In the optimal absorption wavelength, the absorbance A of the above series of standard solutions was determined. […]
0.01 g of the C-β-CD inclusion complex of cinnamaldehyde was weighed and added into a 25 mL volumetric flask, added with anhydrous ethanol to dilute to the mark, and sonicated for 30 min. […] The absorbance A of the solution was determined at 287 nm and taken into the regression equation to calculate the cinnamaldehyde content in the inclusion complex (see the previous example for the conversion formula).

Row | Compound | bacteriostatic effect [1] | inclusion rate for thymol [2] [%] | inclusion rate for cinnamaldehyde [3] [%]
1 | O=[N+]([O-])[O-].[Ag+] [AgNO3, silver nitrate, reference compound] | weak bacteriostatic effect | – | –
2 | cationic β-cyclodextrin [C-β-CD] | no bacteriostatic activity | 63.55 | 21.55
